Assay results as given in paper PMC10584170, “Machine learning-based phenotypic imaging to characterise the targetable biology of Plasmodium falciparum male gametocytes for the development of transmission-blocking antimalarials” (PLOS Pathogens, 2023).

Experiments:
[1] = system: P. falciparum male gametocytes; assay: P. falciparum Dual Gamete Formation Assay (PfDGFA), male readout (exflagellation); type: cell-based, Plasmodium falciparum NF54; details: for Average inhibition male (%): average of replicates; for % inhibition male (individual replicates) R1: replicate R1; for % inhibition male (individual replicates) R3: replicate R3; for % inhibition male (individual replicates) R4: replicate R4; for Activity: hit = >50% inhibition in male or female readout in at least 3 replicates, 0 = no class assigned
How it was run: (§1)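 Day-14 NF54 gametocytes were incubated with compound for 24 h at 37°C under 1% O2/3% CO2/96% N2. Gametogenesis was triggered with ookinete medium (0.1 μM xanthurenic acid) plus Cy3-anti-Pfs25, and exflagellation was imaged by brightfield after cooling to 4°C then 28°C. Females were imaged by Pfs25 fluorescence 24 h later at 28°C.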

[2] = system: P. falciparum female gametocytes; assay: P. falciparum Dual Gamete Formation Assay (PfDGFA), female readout (Pfs25-positive female gametes); type: cell-based, Plasmodium falciparum NF54; details: for Average inhibition female (%): average of replicates; for % inhibition female (individual replicates) R1: replicate R1; for % inhibition female (individual replicates) R3: replicate R3; for % inhibition female (individual replicates) R4: replicate R4
How it was run: as §1

[3] = PfDGFA at 2µM, 24h preincubation with gametocytes
[4] = number of replicates with >50% inhibition in the male readout, 2µM
[5] = number of replicates with >50% inhibition in the female readout, 2µM
[6] = PfDGFA at 2µM, 24h preincubation with gametocytes prior to induction of gametogenesis
[7] = PfDGFA at 2µM, 24h preincubation
[8] = 2µM, 24h preincubation with gametocytes prior to induction of gametogenesis
[9] = 2µM, 24h preincubation, hits selected on >50% inhibition in the male readout across replicates
[10] = 2µM, 24h preincubation, hits selected on >50% inhibition in the female readout across replicates
[11] = 2µM, 24h preincubation, number of replicates with >50% inhibition in the male readout
[12] = 2µM, 24h preincubation, number of replicates with >50% inhibition in the female readout

SMILES	Average inhibition male (%) [1, 3]	% inhibition male (individual replicates) R1 [1, 3]	% inhibition male (individual replicates) R3 [1, 3]	% inhibition male (individual replicates) R4 [1, 3]	HitlevelM [1, 4]	Average inhibition female (%) [2, 3]	% inhibition female (individual replicates) R1 [2, 3]	% inhibition female (individual replicates) R3 [2, 3]	% inhibition female (individual replicates) R4 [2, 3]	HitlevelF [2, 5]	Average inhibition male (%) [1, 8]	% inhibition male (individual replicates) R1 [1, 8]	% inhibition male (individual replicates) R4 [1, 8]	Average inhibition female (%) [2, 8]	% inhibition female (individual replicates) R1 [2, 8]	% inhibition female (individual replicates) R3 [2, 8]	% inhibition female (individual replicates) R4 [2, 8]	other results
c1ccc(Oc2ccc(Nc3ccnc(Nc4cccc(CNCCCN5CCOCC5)c4)n3)cc2)cc1 [TCMDC-138615]	70.3%	74.9%	61.1%	77.6%	4	19.0%	20.2%	10.9%	5.3%	0								
COc1cc2nc(N3CCC(CNC(=O)c4ccc(-c5ccc(C(F)(F)F)cc5)cc4)CC3)nc(N)c2cc1OC [TCMDC-138716]	66.2%	83.5%	34.3%	64.2%	3	47.4%	32.4%	31.5%	42.3%	1								
CC(=O)Nc1ccc(Nc2ncc([N+](=O)[O-])c(Nc3ccccc3C(N)=O)n2)cc1.Cl [TCMDC-138731]																		% inhibition male (individual replicates) R1 [1, 6]: 16.1%; % inhibition male (individual replicates) R3 [1, 6]: -4.1%; % inhibition male (individual replicates) R4 [1, 6]: 46.2%; Average inhibition male (%) [1, 7]: 19.6%; % inhibition female (individual replicates) R1 [2, 6]: 2.0%; % inhibition female (individual replicates) R3 [2, 6]: 5.4%; % inhibition female (individual replicates) R4 [2, 6]: -11.2%; Average inhibition female (%) [2, 7]: -0.8%
O=C(NCCCCN1CCC(c2ccc3c(c2OCCN2CCCC2)CCCC3)CC1)c1ccc(-c2ccc(C(F)(F)F)cc2)cc1 [TCMDC-138768]											31.7%	23.4%	63.6%	9.4%	18.9%	-7.9%	3.3%	% inhibition male (individual replicates) R3 [1, 8]: -6.7%; HitlevelM [1, 9]: 1; Activity [1, 7]: 0; HitlevelF [2, 10]: 0
Cc1[nH]c(C)c(-c2ccc(Oc3ccc(OC(F)(F)F)cc3)cc2)c(=O)c1Br [TCMDC-138826]											-11.2%	-5.2%	-18.5%	14.3%	12.8%	15.5%	15.2%	HitlevelM [1, 9]: 0; Activity [1, 7]: 0; HitlevelF [2, 10]: 0
O=C(NCC1CCN(CCN2CCC(c3cn(CCO)c4ccccc34)CC2)CC1)c1ccc(-c2ccc(C(F)(F)F)cc2)cc1 [TCMDC-138856]											42.1%	32.1%	39.5%	23.9%	24.2%	27.5%	18.4%	HitlevelM [1, 11]: 1; HitlevelF [2, 12]: 0
CC1(C)CC(NCCCCCCCOc2ccc(OCc3ccccc3)cc2)CC(C)(C)N1.Cl [TCMDC-138958]	66.7%	71.0%	36.7%	78.9%	3	23.9%	22.5%	-1.0%	34.0%	0								
CCN1CCC2(c3cccc(OC)c3)Cc3nc4ccccc4c(-c4ccccc4)c3CC2C1 (stereo not drawn) [TCMDC-138968]											50.6%	28.7%	66.9%	33.9%	34.1%	23.7%	21.6%	% inhibition male (individual replicates) R3 [1, 8]: 22.4%; HitlevelM [1, 11]: 2; HitlevelF [2, 12]: 1
